This note sets out measurements from US9326511B2, “Methods of inhibiting microbial biofilms” (priority 2008, dated 2016).

Assay type in all cases: cell-based, Staphylococcus aureus
For one assay, the system named is S. aureus SH1000. Kind of assay: Planktonic MIC by broth microdilution (BSAC guidelines). On the procedure: (§1) Methods: MICs were determined for planktonic cultures by broth microdilution according to British Society for Antimicrobial Chemotherapy (BSAC) guidelines. Biofilm MICs (bMIC) and minimum biofilm eradication concentrations (MBECs) were determined using the Calgary biofilm device. The effect of Compound 10 on the viability of cold culture cells was determined by growing S. aureus SH1000 to early exponential phase at 37° C. and resuspending the cells in pre-chilled media, where they were maintained in the presence and absence of Compound 10 and control agents. The effect of Compound 10 on slow growing cells expressing the stringent response was also determined by growing cultures to early log phase and the stringent response induced by the addition of the isoleucyl-tRNA synthetase inhibitor mupirocin. Compound 10 and control agents were then added and samples recovered for viable cell determinations.
(In general: Broth dilution looks for growth in wells or tubes with falling amounts of substance.)

Assay [1] concerns S. aureus SH1000 biofilms. Kind of assay: Biofilm MIC and minimum biofilm eradication concentration, Calgary Biofilm Device. Conditions: for MIC: Staphylococcus aureus, SH1000BIOFILMS, read-out: bMIC; for MIC / bMIC: biofilm MIC; for MBEC: minimum biofilm eradication concentration. The method, then: as §1
Biofilm MICs and minimum biofilm eradication concentrations (MBEC) were determined in the Calgary Biofilm Device (Nunc Inc, Roskilde, Denmark) as described by Miller et al., 2005. This involves the following steps. Aliquots (200 μL) of exponential phase cultures of strain SH1000 were added to each well of a 96-well microtitre tray. The lid assembly, which has 96 polystyrene pegs corresponding to each well, was then replaced and the system incubated for 24 hours at 37° C. on a rocking platform. Following this a biofilm of approximately 10^7 cfu matured on each peg. The lid was then washed twice in phosphate-buffered saline (PBS) to remove residual planktonic growth and then placed into a microtitre tray with fresh media containing doubling dilutions of the test antibiotic. The system was then incubated for 24 hours at 37° C. on a rocking platform. The MIC was defined as the lowest concentration of antibiotic completely inhibiting visible growth after this incubation. After the MIC was recorded, the lid assembly was again washed twice in PBS to remove planktonic cells and remaining antibiotic and then placed into fresh drug-free media. The system was incubated for a further 24 hours and the MBEC was defined as the lowest concentration of antibiotic completely inhibiting the re-establishment of planktonic growth.

The subject of assay [2] is S. aureus SH1000 cold cultures. Kind of assay: Time-kill against cold cultures (4° C.). Conditions: cold culture held at 4° C. for 5 hours, agents at 4×MIC. The method, then: as §1
The effect of XF drugs on the viability of cold culture cells was determined by growing S. aureus SH1000 to early exponential phase at 37° C., harvesting the cells by centrifugation (5,000×g, 10 min.) and resuspending them in pre-chilled media where they were maintained in the presence and absence of XF drugs and control agents for 5 hours. […] (FIG. 11).
(§2) The anti-staphylococcal activities of Compound 10, Compound 12 and a range of comparator agents against slow-growing cultures of Staphylococcus aureus were studied using standard time-kill methodology (Oliva et al. 2003, Hobbs et al. 2008). Staphylococcus aureus SH1000 cultures were grown to early exponential phase (OD600 nm of 0.2) in Mueller-Hinton broth (MHB) before being exposed to antibacterial agents at 4×MIC. An untreated culture served as the negative control. The experiments were undertaken in triplicate.
Cold cultures were prepared by growing SH1000 cells to early exponential phase (OD600 nm of 0.2) at 37° C. Cultures were then centrifuged and the cell pellet was resuspended in MHB pre-chilled to 4° C. The killing kinetics of antimicrobial agents were studied as described in the section above, with the exception that cultures were maintained at 4° C. over the 5 hour sampling period.

The test system of assay [3] is stringent S. aureus SH1000 cultures. Kind of assay: Time-kill against cultures expressing the stringent response (induced with mupirocin). Conditions: stringent response induced with mupirocin, agents at 4×MIC. The method, then: as §1
When nutrients become limiting for growth bacteria adjust their metabolism from one that supports growth to one that provides for long survival in the absence of nutrients. In many bacteria a key facilitator of this physiological switch, known as the stringent response, is accumulation of guanosine […] and pentaphosphate (Traxler et al., 2008). The antibiotic mupirocin is a strong inducer of the stringent response in S. aureus and effectively causes starvation of charged isoleucyl tRNA by potent inhibition of isoleucy ItRNA synthetase (IRS) (Oliva et al., 2003). The activity of XF drugs against S. aureus SH1000 prevented from growing by the addition of mupirocin (Oliva et al., 2003), was therefore examined (FIG. 10). As an alternative method for arresting growth, bacteria were suspended in cold growth medium (Mascio et al., 2007) and the bactericidal activity of XF drugs was also determined under these conditions (FIG. 11).
as §2
The antibiotic mupirocin is a strong inducer of the stringent response in S. aureus and causes starvation of charged isoleucyl tRNA by potent inhibition of isoleucyl tRNA synthetase (IRS) (Oliva et al. 2003, Cassels et al. 1995) Stringency was induced in SH1000 cultures by adding mupirocin (4 mg/L) to cells in the early exponential growth phase (OD600 nm of 0.2) (Oliva et al. 2003, Cassels et al. 1995). Cultures were incubated with mupirocin for 30 minutes before sampling began. Cultures were maintained at 37° C., and samples were taken at 30 minute intervals for 300 minutes, serially diluted in phosphate buffered saline (PBS) and diluted culture was spread on Mueller-Hinton agar and was incubated at 37° C. for 18-24 hours before the number of CFU were counted.

Setting [4] is: Staphylococcus aureus, planktonic S. aureus SH1000 (Table 5), read-out: MIC.
[5] abbreviates: planktonic S. aureus SH1000 (Table 6).
The mark [6] stands for this setting: 24 h, S. aureus SH1000, Calgary Biofilm Device, 24 hours (Table 6).
Where [7] appears, read: S. aureus SH1000, Calgary device (Example H).
[8] abbreviates: planktonic S. aureus SH1000 (Table 5).
Where [9] appears, read: S. aureus SH1000, Calgary Biofilm Device, 24 hours (Table 6).
Where [10] appears, read: S. aureus SH1000, Calgary Biofilm Device (Table 6).

Converted amounts (≈) assume the structure as drawn. “Also recorded” adds a separate entry of the source. Like-named read-outs stand apart in the source and are kept apart here. Where only a bound is given, the exact number is not on record here.

For the compound `C[C@@H](O)[C@H]1C(=O)N2C(C(=O)O)=C(S[C@@H]3CN[C@H](C(=O)N(C)C)C3)[C@H](C)[C@H]12` [Meropenem], the MIC (in the assay with S. aureus SH1000 (setting [4]); in the assay on S. aureus SH1000 (setting [5]); in assay [1] (setting [6]); in assay [1] (setting [7])) was 0.5 µg/mL (≈ 1.3 µM) throughout.

As for `Cc1onc(-c2c(F)cccc2Cl)c1C(=O)N[C@@H]1C(=O)N2[C@@H]1SC(C)(C)[C@@H]2C(=O)O` [Flucloxacillin], the MIC in the assay on S. aureus SH1000 (setting [4]) worked out at 0.125 µg/mL (≈ 0.275 µM); in the assay with S. aureus SH1000 (setting [5]), 0.125 µg/mL (≈ 0.275 µM); in assay [1] (setting [6]) it was 4 µg/mL (≈ 8.81 µM); in assay [1] (setting [7]) it was 4 µg/mL (≈ 8.81 µM).

With `CO[C@H]1/C=C/O[C@@]2(C)Oc3c(C)c(O)c4c(O)c(c(/C=N/N5CCN(C)CC5)c(O)c4c3C2=O)NC(=O)/C(C)=C\C=C\[C@H](C)[C@H](O)[C@@H](C)[C@@H](O)[C@@H](C)[C@H](OC(C)=O)[C@@H]1C` [Rifampin], the MIC came out at 0.008 µg/mL (≈ 0.00972 µM) in the assay with S. aureus SH1000 (setting [4]), 0.008 µg/mL (≈ 0.00972 µM) in the assay with S. aureus SH1000 (setting [5]), 0.02 µg/mL (≈ 0.0243 µM) in assay [1] (setting [6]) and 0.03 µg/mL (≈ 0.0365 µM) in assay [1] (setting [7]).

Turning to `CN(C)[C@@H]1C(O)=C(C(N)=O)C(=O)[C@@]2(O)C(O)=C3C(=O)c4c(O)cccc4[C@@](C)(O)[C@H]3C[C@@H]12` [Tetracycline], the MIC with S. aureus SH1000 (setting [4]) turned out to be 1 µg/mL (≈ 2.25 µM); against S. aureus SH1000 (setting [5]) it was 1 µg/mL (≈ 2.25 µM); in assay [1] (setting [6]), 0.5 µg/mL (≈ 1.13 µM); in assay [1] (setting [7]) it was 0.5 µg/mL (≈ 1.13 µM).

`[H]/N=C(\N/C(=N/[H])NCCCCCCNC(=N)NC(=N)Nc1ccc(Cl)cc1)Nc1ccc(Cl)cc1` [Chlorhexidine]: the MIC came out at 2 µg/mL (≈ 3.96 µM) with S. aureus SH1000 (setting [4]), 2 µg/mL (≈ 3.96 µM) with S. aureus SH1000 (setting [5]), 1 µg/mL (≈ 1.98 µM) in assay [1] (setting [6]) and 1 µg/mL (≈ 1.98 µM) in assay [1] (setting [7]).

Consider `CCCCCCCCCC(=O)N[C@@H](Cc1c[nH]c2ccccc12)C(=O)N[C@H](CC(N)=O)C(=O)N[C@@H](CC(=O)O)C(=O)N[C@@H]1C(=O)NCC(=O)N[C@@H](CCCN)C(=O)N[C@@H](CC(=O)O)C(=O)N[C@H](C)C(=O)N[C@@H](CC(=O)O)C(=O)NCC(=O)N[C@H](CO)C(=O)N[C@@H]([C@H](C)CC(=O)O)C(=O)N[C@@H](CC(=O)c2ccccc2N)C(=O)O[C@@H]1C` [Daptomycin], for which the “viability / bactericidal activity in time-kill (in words)” value was “no loss of viability; also recorded: retained some bactericidal activity; also recorded: retained limited bactericidal activity” in assay [2] and “no loss of viability” in assay [3]. For the same compound, the MIC in the assay with S. aureus SH1000 (setting [4]) came to 1 µg/mL (≈ 0.617 µM); against S. aureus SH1000 (setting [5]), 1 µg/mL (≈ 0.617 µM); in assay [1] (setting [6]), 2 µg/mL (≈ 1.23 µM); in assay [1] (setting [7]) it was 2 µg/mL (≈ 1.23 µM).

On to `O=C(O)c1cn(C2CC2)c2cc(N3CCNCC3)c(F)cc2c1=O` [Ciprofloxacin], for which the MIC with S. aureus SH1000 (setting [4]) was 2 µg/mL (≈ 6.04 µM); in the assay on S. aureus SH1000 (setting [5]) it was 2 µg/mL (≈ 6.04 µM); in assay [1] (setting [6]), 4 µg/mL (≈ 12.1 µM); in assay [1] (setting [7]), 4 µg/mL (≈ 12.1 µM).

Consider `C/C(=C\C(=O)OCCCCCCCCC(=O)O)C[C@@H]1OC[C@H](C[C@@H]2O[C@H]2[C@@H](C)[C@H](C)O)[C@@H](O)[C@H]1O` [Mupirocin], for which the MIC in the assay on S. aureus SH1000 (setting [4]) was determined as 0.125 µg/mL (≈ 0.25 µM); in the assay with S. aureus SH1000 (setting [5]) it was 0.125 µg/mL (≈ 0.25 µM); in assay [1] (setting [6]) it was 0.25 µg/mL (≈ 0.499 µM); in assay [1] (setting [7]) it was 0.25 µg/mL (≈ 0.499 µM).

`CC(=O)O[C@H]1C[C@@]2(C)[C@@H](C[C@@H](O)[C@H]3[C@@]4(C)CC[C@@H](O)[C@@H](C)[C@@H]4CC[C@@]32C)/C1=C(\CCC=C(C)C)C(=O)O` [Fusidic acid]: the MIC in the assay on S. aureus SH1000 (setting [4]) worked out at 0.25 µg/mL (≈ 0.484 µM); against S. aureus SH1000 (setting [5]) it was 0.25 µg/mL (≈ 0.484 µM); in assay [1] (setting [6]) it was 0.5 µg/mL (≈ 0.968 µM); in assay [1] (setting [7]), 0.5 µg/mL (≈ 0.968 µM).

Regarding `CCCCCCCCCCCCCCCC[N+](C)(C)C.[Br-]` [CTAB], the MIC in the assay on S. aureus SH1000 (setting [8]) and against S. aureus SH1000 (setting [5]) was 2 µg/mL in each case. In addition, the bMIC in assay [1] (setting [9]) and in assay [1] (setting [7]) was 2 µg/mL throughout. In addition, the MBEC in assay [1] (setting [10]) and in assay [1] (setting [7]) was over 256 µg/mL each time.

Regarding Gentamycin, the MIC against S. aureus SH1000 (setting [8]) and against S. aureus SH1000 (setting [5]) was 0.5 µg/mL in each case. Also, the bMIC in assay [1] (setting [9]) and in assay [1] (setting [7]) was 1 µg/mL throughout. In addition, the MBEC in assay [1] (setting [10]) and in assay [1] (setting [7]) was over 256 µg/mL each time.

Turning to `CO/N=C(\C(=O)N[C@@H]1C(=O)N2C(C(=O)O)=C(COC(C)=O)CS[C@H]12)c1csc(N)n1` [Cefotaxime], the MIC came out at 0.5 µg/mL (≈ 1.1 µM) with S. aureus SH1000 (setting [4]), 0.5 µg/mL (≈ 1.1 µM) against S. aureus SH1000 (setting [5]), 4 µg/mL (≈ 8.78 µM) in assay [1] (setting [6]) and 4 µg/mL (≈ 8.78 µM) in assay [1] (setting [7]).
